# Patent publication US7083983B2, “Inhibitors of the interaction between P53 and MDM2” (Cancer Research Campaign Technology Limited, priority 1996, dated 2006)
# Where no end group is shown, it is not given here.
# Columns and labels:
# [1] = tested on: GST-hdm2, MBP-hdm2 or TRX-hdm2; assay: solution phase phage ELISA with hdm2 fusion proteins; assay type: binding, human; conditions: phages preincubated in solution with GST-hdm2, MBP-hdm2 or TRX-hdm2
# Method: GST-, MBP-, TRX-hdm2 or baculovirus produced mdm2 (Sf9 cell extract) diluted in PBST-M are reacted in solution with hdm2- or GST-binding phage overnight at 4° C. Simultaneously, ELISA plates are coated with 100 μl Rabbit anti-mouse antibodies (DAKO, Z0259) 1:1000 in 0.1 M NaHCO3, pH 9.6. The plates are blocked as usual and incubated with monoclonal anti-mdm2 antibodies (hybridoma supernatant 1:5 diluted in PBST-M) for one hour. For the titration ELISA, purified SMP14 (8 μg/ml in PBS) is used to coat the plate directly. In either case, the pre-incubated phage-hdm2 samples are transfered to the coated and blocked plate and incubated for two hours at room temperature. Bound phages are detected as described.
# For these experiment clones BB2/BB11 (GST binding control phage) and BB3/BB10 (hdm2 phage) are chosen. Phages are preincubated in solution with GST-hdm2, MBP-hdm2 or TRX-hdm2 and the phage-hdm2 complexes are transfered to wells which contain different monoclonal anti-mdm2 antibodies bound to the solid phase via anti-mouse antibodies. Bound phages are detected. […] All three anti-mdm2 antibodies used (SMP 14, 4B2, 3G5) are able to bind to hdm2 complexed with GST-phage. Antibody SMP14 is commercially available and described in Picksley et al., Oncogene 9, 2523–2529 (1994) incorporated by reference above. […] Phage-hdm2 complexes are pulled down by solid phase SMP14 and bound phages are detected. […]
# [2] = tested on: U2-OS cells, pRGCΔFosLacZ reporter; assay: transient transfection, p53 reporter induction in U2-OS cells; assay type: cell-based; conditions: transfected plasmid DNA, 48 hours after transfection
# Method: (§1) The OSA cell line contains a highly elevated mdm2 level due to gene amplification (Florence et al., 1994). The U2-OS cell line has no gene amplification for mdm2 but has elevated levels of dmd2-mRNA (Florence et al. 1994). The MCF-7 cell line contains heterogenously expressed low levels of wild type p53 and no reported mdm2 elevation.
# (§2) For transient transfection and reporter induction, cells are seeded into 6 well plates at 1.5×10^6 cell per well. They are grown to a density of 80% confluence and transfected using different Lipophilic reagents such Lipofectin and Lipofectamin from Promega or Dosper and Dotap from Boehringer. […] Two to four hours after transfection, complete medium is added. Forty-eight hours after transfection β-galactosidase activity is measured using […] (Boehringer) as a substrate. Cells are scraped into PBS and centrifuged. Pellets from each well are dissolved in 50 μl of Reporter Lysis buffer (Promega) and incubated on ice for 15 minutes. Soluble Lysates are incubated with CPRG in 100 mM phosphate buffer, pH 7.0. Optical Density at 595 nm is measured 1 to 24 hours later.
# [3] = tested on: MCF-7 cells, pRGCΔFosLacZ reporter; assay: transient transfection, p53 reporter induction in MCF-7 cells; assay type: cell-based; conditions: transfected plasmid DNA, 48 hours after transfection
# Method: as §1, §2
# [4] = tested on: T22 cells stably transfected with pRGC ΔFosLacz, a p53 responsive β-galactosidase reporter; assay: p53 responsive β-galactosidase reporter after microinjection into T22 cells; assay type: cell-based, mouse; conditions: low level p53 and mdm2, 24 hours
# From the text: (§3) Antibodies or DNA encoding the described binding elements may be microinjected into Vrn.6 cells, a transformed rat thyroid epithelial cell line and T22 cells, a mouse prostrate derived cell line both cell lines being stably transfected with pRGC ΔFosLacz, a p53 responsive β-galactosidase reporter. […] Vrn.6 tolerate high levels of wild type p53 and overexpress MDM2 at a protein level. T22 cells typically contain low levels of p53 and mdm2.
# (§4) For microinjection, cells may be seeded into tissue culture dishes and grown to 60–70% confluence. Microinjection may be performed using an Eppendorfer microinjection system (Microinjector 5242, Micromanipulator 5170) mounted to an Axiovert light microscope (Zeiss) having a heated stage.
# (§5) Purified mouse monoclonal antibodies 3G5 and 4B2 may be injected intranuclearly and cytoplasmicly in PBS at a concentration of 1.3 mg/ml. Plasmid DNA encoding for TIP 12/1, TIP wt and Trx may be injected intronuclearly in water at a concentration of 0.25 mg 7 ml. Following microinjection, fresh medium may be added to the cell cultures and the cultures further incubated for 24 hours.
# (§6) To detect β-galactosidase activity, cells may be washed with PBS and fixed with 2% formaldehyde, /0.2% glutaraldehyde in PBS for 5 minutes on ice. […]
# [5] = tested on: OSA cells, pRGCΔFosLacZ reporter; assay: transient transfection, p53 reporter induction in OSA cells; assay type: cell-based, human; conditions: highly elevated mdm2, transfected plasmid DNA, 48 hours after transfection
# Method: as §1, §2
# [6] = tested on: Vrn.6 cells stably transfected with pRGC ΔFosLacz, a p53 responsive β-galactosidase reporter; assay: p53 responsive β-galactosidase reporter after microinjection into Vrn.6 cells; assay type: cell-based, rat; conditions: Vrn.6 cells having overexpressed MDM2; injected intranuclearly; 24 hours
# From the text: as §3, §4, §5, §6
# Chain of GST-hdm2, MBP-hdm2 or TRX-hdm2 (Q00987 1-188 limits assumed): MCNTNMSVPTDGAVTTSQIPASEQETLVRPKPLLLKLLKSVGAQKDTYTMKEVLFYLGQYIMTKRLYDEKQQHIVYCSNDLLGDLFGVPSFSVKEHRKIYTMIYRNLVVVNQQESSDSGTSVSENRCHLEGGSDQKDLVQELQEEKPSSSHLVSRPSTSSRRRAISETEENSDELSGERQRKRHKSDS
Substance,binding of phage to hdm2 fusion proteins [1],induction of the p53 reporter (β-galactosidase activity) [2],induction of the p53 reporter (β-galactosidase activity) [3],β-galactosidase response (blue stained cells) of p53 reporter [4],induction of the p53 reporter (β-galactosidase activity) [5],β-galactosidase response (blue stained cells) of p53 reporter [6]
PAFSRFWSADLSAGAH [BB3],recognizes all three hdm2 fusion proteins,–,–,–,–,–
"TIP 12/1: binding element: E. coli thioredoxin presenting the peptide insert of clone 12/1 in its active site, delivered as encoding plasmid DNA (MPRFMDYWEGLN; not fully specified; printed as M-P-R-F-M-D-Y-W-E-G-L-N)",–,most induction,most induction,strong positive response,Lower induction,–
Trx: negative control binding element comprising thioredoxin without a peptide insert [reference compound],–,–,–,No response,–,not a positive response
